For 23 molecules, IC50 results are on record in patent publication US11634447B2 (priority 2012, dated 2023).

In this experiment the test system is bacterial strain LF82 binding to the glycoprotein BSA-(Mannose)3. Nature of the experiment: Bacterial Binding Assay (BBA). The following applies: read-out: Bacterial Binding Assay IC50, LF82/Luciferase strain binding to BSA-(Man)3 coated plates, luminescence. The experiment is classed as cell-based, Escherichia coli. The gist of the method:
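Inhibition of LF82/luciferase E. coli adhesion is read as luminescence after washing off unbound cells. Compound and bacteria (10^7 per well) are co-incubated 40-75 min at room temperature on wells coated with 0.5-2 μg/mL BSA-(Man)3, with BSA-only wells as background; IC50 values derived.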
In the case of `OC[C@H]1O[C@H](C#Cc2ccc3c(c2)C(CO)(CO)c2cc(C#C[C@H]4O[C@H](CO)[C@@H](O)[C@H](O)[C@@H]4O)ccc2-3)[C@@H](O)[C@@H](O)[C@@H]1O` [Compound 217, (2R,3S,4R,5S,6R)-2-[2-[9,9-Bis(hydroxymethyl)-7-[2-[(2R,3S,4R,5S,6R)-3,4,5-trihydroxy-6-(hydroxymethyl)tetrahydropyran-2-yl]ethynyl]fluoren-2-yl]ethynyl]-6-(hydroxymethyl)tetrahydropyran-3,4,5-triol], the IC50 was determined as 20 nM.

For the molecule `CC(C)OC(=O)c1c(C#C[C@H]2O[C@H](CO)[C@@H](O)[C@H](O)[C@@H]2O)ccc2c1C1(CCNCC1)c1cc(C#C[C@H]3O[C@H](CO)[C@@H](O)[C@H](O)[C@@H]3O)ccc1-2` [Compound 208], the IC50 is 0.03 nM. On to `CN1CCN(CCNC(=O)Cn2c3cc(C#C[C@H]4O[C@H](CO)[C@@H](O)[C@H](O)[C@@H]4O)ccc3c3ccc(C#C[C@H]4O[C@H](CO)[C@@H](O)[C@H](O)[C@@H]4O)cc32)CC1` [Compound 177, 2-[2,7-bis[2-[(2R,3S,4R,5S,6R)-3,4,5-trihydroxy-6-(hydroxymethyl)tetrahydropyran-2-yl]ethynyl]carbazol-9-yl]-N-[2-(4-methylpiperazin-1-yl)ethyl]acetamide], for which the IC50 turned out to be 0.66 nM. The same measure for `O=C1CC[C@H](C(=O)c2c(C#C[C@H]3O[C@H](CO)[C@@H](O)[C@H](O)[C@@H]3O)ccc3c2C2(CCNCC2)c2cc(C#C[C@H]4O[C@H](CO)[C@@H](O)[C@H](O)[C@@H]4O)ccc2-3)N1` [Compound 243, (5R)-5-[2,7-bis[2-[(2R,3S,4R,5S,6R)-3,4,5-trihydroxy-6-(hydroxymethyl)tetrahydropyran-2-yl]ethynyl]spiro[fluorene-9,4piperidine]-1carbonyl]pyrrolidin-2-one]: 0.22 nM.

Consider `OC[C@H]1O[C@H](C#Cc2cc3sc(C#C[C@H]4O[C@H](CO)[C@@H](O)[C@H](O)[C@@H]4O)cc3s2)[C@@H](O)[C@@H](O)[C@@H]1O` [Compound 133], for which the IC50 is 28 nM. For `Cc1c(C#C[C@H]2O[C@H](CO)[C@@H](O)[C@H](O)[C@@H]2O)ccc(C#C[C@H]2O[C@H](CO)[C@@H](O)[C@H](O)[C@@H]2O)c1C` [Compound 99, (2R,3S,4R,5S,6R)-2-[2-[2,3-dimethy1-4-[2-[(2R,3S,4R,5S,6R)-3,4,5-trihydroxy-6-(hydroxymethyl)tetrahydropyran-2-yl]ethynyl]phenyl]ethynyl]-6-(hydroxymethyl)tetrahydropyran-3,4,5-triol], the IC50 was determined as 145 nM. For `Cn1c2cc(C#C[C@H]3O[C@H](CO)[C@@H](O)[C@H](O)[C@@H]3O)ccc2c2ccc(C#C[C@H]3O[C@H](CO)[C@@H](O)[C@H](O)[C@@H]3O)cc21` [Compound 112, (2R,3S,4R,5S,6R)-2-(hydroxymethyl)-6-[2-[9-methyl-7-[2-[(2R,3S,4R,5S,6R)-3,4,5-trihydroxy-6-(hydroxymethyl)tetrahydropyran-2-yl]ethynyl]carbazol-2-yl]ethynyl]tetrahydropyran-3,4,5-triol], the IC50 is 17 nM. For the molecule `OC[C@H]1O[C@H](C#Cc2ccc3c(c2)C(O)(C2CC2)c2cc(C#C[C@H]4O[C@H](CO)[C@@H](O)[C@H](O)[C@@H]4O)ccc2-3)[C@@H](O)[C@@H](O)[C@@H]1O` (stereo partly drawn) [Compound 114, (2R,3S,4R,5S,6R)-2-[2-[9-cyclopropyl-9-hydroxy-7-[2-[(2R,3S,4R,5S,6R)-3,4,5-trihydroxy-6-(hydroxymethyl)tetrahydropyran-2-yl]ethynyl]fluoren-2-yl]ethynyl]-6-(hydroxymethyl)tetrahydropyran-3,4,5-triol], the IC50 was 1.2 nM. As to `OC[C@H]1O[C@H](C#Cc2cc(F)c(C#C[C@H]3O[C@H](CO)[C@@H](O)[C@H](O)[C@@H]3O)cc2F)[C@@H](O)[C@@H](O)[C@@H]1O` [Compound 88, (2R,3S,4R,5S,6R)-2-[2-[2,5-difluoro-4-[2-[(2R,3S,4R,5S,6R)-3,4,5-trihydroxy-6-(hydroxymethyl)tetrahydropyran-2-yl]ethynyl]phenyl]ethynyl]-6-(hydroxymethyl)tetrahydropyran-3,4,5-triol], the IC50 came to 132 nM. Take `Cc1cc(-c2cnc(-c3ccc([C@H]4O[C@H](CO)[C@@H](O)[C@H](O)[C@@H]4O)c(C)c3)cn2)ccc1[C@H]1O[C@H](CO)[C@@H](O)[C@H](O)[C@@H]1O` [Compound 153, (2R,3S,4R,5S,6R)-2-(hydroxymethyl)-6-[2-methyl-4-[5-[3-methyl-4-[(2R,3S,4R,5S,6R)-3,4,5-trihydroxy-6-(hydroxymethyl)tetrahydropyran-2-yl]phenyl]pyrazin-2-yl]phenyl]tetrahydropyran-3,4,5-triol]: the IC50 was 92 nM. With `Cn1ccc(C(=O)c2c(C#C[C@H]3O[C@H](CO)[C@@H](O)[C@H](O)[C@@H]3O)ccc3c2C2(CCNCC2)c2cc(C#C[C@H]4O[C@H](CO)[C@@H](O)[C@H](O)[C@@H]4O)ccc2-3)n1` [Compound 238, [2,7-bis[2-[(2R,3S,4R,5S,6R)-3,4,5-trihydroxy-6-(hydroxymethyl)tetrahydropyran-2-yl]ethynyl]spiro[fluorene-9,4piperidine]-1yl]-(1-methylpyrazol-3-yl)methanone] the figure was 0.09 nM; with `OC[C@H]1O[C@H](c2ccc(C#C[C@H]3O[C@H](CO)[C@@H](O)[C@H](O)[C@@H]3O)cc2)[C@@H](O)[C@@H](O)[C@@H]1O` [Compound 141, (2R,3S,4R,5S,6R)-2-(hydroxymethyl)-6-[2-[4-[(2R,3S,4R,5S,6R)-3,4,5-trihydroxy-6-(hydroxymethyl)tetrahydropyran-2-yl]phenyl]ethynyl]tetrahydropyran-3,4,5-triol], 340 nM; with `OC[C@H]1O[C@H](c2ccc(-c3cccc(-c4ccc([C@H]5O[C@H](CO)[C@@H](O)[C@H](O)[C@@H]5O)cc4)c3)cc2)[C@@H](O)[C@@H](O)[C@@H]1O` [Compound 66], 34 nM. In the case of `Cc1cc(-c2ccc([C@H]3O[C@H](CO)[C@@H](O)[C@H](O)[C@@H]3O)cc2F)ccc1[C@H]1O[C@H](CO)[C@@H](O)[C@H](O)[C@@H]1O` [Compound 150, (2R,2,3S,3,4R,4,5S,5,6R,6)-6,6(2-fluoro-3methyl-[1,1biphenyl]-4,4diyl)bis(2-(hydroxymethyl)tetrahydro-2H-pyran-3,4,5-triol)], the IC50 came to 71 nM. Regarding `OC[C@H]1O[C@H](C#Cc2ccc(C#C[C@H]3O[C@H](CO)[C@@H](O)[C@H](O)[C@@H]3O)c3cnccc23)[C@@H](O)[C@@H](O)[C@@H]1O` [Compound 130, (2R,3S,4R,5S,6R)-2-(hydroxymethyl)-6-[2-[8-[-2-[(2R,3S,4R,5S,6R)-3,4,5-trihydroxy-6-(hydroxymethyl)tetrahydropyran-2-yl]ethynyl]-5-isoquinolyl]ethynyl]tetrahydropyran-3,4,5-triol], the IC50 was 67 nM. Take `NC1CCC2(CC1)c1cc(C#C[C@H]3O[C@H](CO)[C@@H](O)[C@H](O)[C@@H]3O)ccc1-c1ccc(C#C[C@H]3O[C@H](CO)[C@@H](O)[C@H](O)[C@@H]3O)cc12` [Compound 205]: the IC50 was determined as 0.39 nM. With `OC[C@H]1O[C@H](c2cccc(-c3ccc(-c4cccc([C@H]5O[C@H](CO)[C@@H](O)[C@H](O)[C@@H]5O)c4)cc3)c2)[C@@H](O)[C@@H](O)[C@@H]1O` [Compound 139, (2R,3S,4R,5S,6R)-2-(hydroxymethyl)-6-[3-[4-[3-[(2R,3S,4R,5S,6R)-3,4,5-trihydroxy-6-(hydroxymethyl)tetrahydropyran-2-yl]phenyl]phenyl]phenyl]tetrahydropyran-3,4,5-triol], the IC50 was found to be 46 nM.

For `COCCc1cc(C#C[C@H]2O[C@H](CO)[C@@H](O)[C@H](O)[C@@H]2O)ccc1C#C[C@H]1O[C@H](CO)[C@@H](O)[C@H](O)[C@@H]1O` [Compound 74], the IC50 is 8.1 nM.

Turning to `[2H]C([2H])([2H])OCCn1c2cc(C#C[C@H]3O[C@H](CO)[C@@H](O)[C@H](O)[C@@H]3O)ccc2c2ccc(C#C[C@H]3O[C@H](CO)[C@@H](O)[C@H](O)[C@@H]3O)cc21` [Compound 183, (2R,3S,4R,5S,6R)-2-(Hydroxymethyl)-6-[2-[9-[2-(trideuteriomethoxy)ethyl]-7-[2-[(2R,3S,4R,5S,6R)-3,4,5-trihydroxy-6-(hydroxymethyl)tetrahydropyran-2-yl]ethynyl]carbazol-2-yl]ethynyl]tetrahydropyran-3,4,5-triol], the IC50 came out at 0.76 nM. As for `OC[C@H]1O[C@H](c2ccc(-c3ccc([C@H]4O[C@H](CO)[C@@H](O)[C@H](O)[C@@H]4O)cc3F)cc2)[C@@H](O)[C@@H](O)[C@@H]1O` [Compound 62], the IC50 stood at 67 nM. In the case of `Cc1cc(C#C[C@H]2O[C@H](CO)[C@@H](O)[C@H](O)[C@@H]2O)ccc1-c1ccc(C#C[C@H]2O[C@H](CO)[C@@H](O)[C@H](O)[C@@H]2O)cc1C` [Compound 124, (2R,3S,4R,5S,6R)-2-(hydroxymethyl)-6-[2-[3-methyl-4-[2-methyl-4-[2-[(2R,3S,4R,5S,6R)-3,4,5-trihydroxy-6-(hydroxymethyl)tetrahydropyran-2-yl]ethynyl]phenyl]phenyl]ethynyl]tetrahydropyran-3,4,5-triol], the IC50 is 27 nM. With `CCn1c2cc(C#C[C@H]3O[C@H](CO)[C@@H](O)[C@H](O)[C@@H]3O)ccc2c2ccc(C#C[C@H]3O[C@H](CO)[C@@H](O)[C@H](O)[C@@H]3O)cc21` [Compound 111, (2R,3S,4R,5S,6R)-2-[2-[9-ethyl-7-[2-[(2R,3S,4R,5S,6R)-3,4,5-trihydroxy-6-(hydroxymethyl)tetrahydropyran-2-yl]ethynyl]carbazol-2-yl]ethynyl]-6-(hydroxymethyl)tetrahydropyran-3,4,5-triol] the figure was 2.1 nM; with `Cc1cc(-c2ccc([C@H]3O[C@H](CO)[C@@H](O)[C@H](O)[C@@H]3O)c(C)c2)ccc1[C@H]1O[C@H](CO)[C@@H](O)[C@H](O)[C@@H]1O` [Compound 68], 7.7 nM.
